In patent publication US12655150B2 (Cedilla Therapeutics, Inc., priority 2021, dated 2026):

Assays:
[1] = tested on: EGFR-mutant NSCLC PC-9 cells; experiment: Apoptosis (caspase 3/7, IncuCyte) in combination with EGFR inhibitor; type: cell-based; conditions: apoptotic index
Procedure: Apoptosis was detected by CellEvent Caspase 3/7 Green ReadyProbes Reagent (ThermoFisher), a fluorogenic indicator of activated caspase-3/7. Cell death (apoptsis) and cell growth (phase confluence) over time were captured by IncuCyte live cell imaging system (Essen Bioscience) and quantified by IncuCyte S3 software (Essen Bioscience). Apoptotic Index was calculated by dividing apoptosis signal with phase confluence.

[2] = tested on: NCI-H226; experiment: 72H TEAD Proliferation Assay (Cell Titer Glo 2.0); type: cell-based; conditions: Homo sapiens, NCI-H226, 72 h, CTG 2.0, cell line not given (NCI-H226 responsive, NCI-H28 non-responsive)
Outline: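 Growth read-out is ATP luminescence (CellTiter-Glo 2.0) after 72 h compound exposure, corrected for no-CTG background and day-0 values, with GI50 from nonlinear regression. Sensitive line NCI-H226 (NF2-deficient); non-responsive NCI-H28 (NF2 wild type) distinguishes TEAD-driven from nonspecific growth inhibition.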

Structure (SMILES) | Fold Change over DMSO at 48 hrs ([1]; Osimertinib (100 nM) alone) | Fold Change over DMSO at 48 hrs ([1]; I-41 (10 μM) alone) | Fold Change over DMSO at 48 hrs ([1]; Osimertinib (100 nM) + I-41 (0.37 μM)) | Fold Change over DMSO at 48 hrs ([1]; Osimertinib (100 nM) + I-41 (1.1 μM)) | Fold Change over DMSO at 48 hrs ([1]; Osimertinib (100 nM) + I-41 (10 μM)) | GI50 [2] [µM]
C=CC(=O)Nc1cc(Nc2nccc(-c3cn(C)c4ccccc34)n2)c(OC)cc1N(C)CCN(C)C [Osimertinib, reference compound] | 2.6 |  |  |  |  | 
CC(C)(C)c1ccc(-c2nc3cc(C(=O)O)ccc3n3cccc23)cc1 [I-41, 4-(4-(tert-butyl)phenyl)pyrrolo[1,2-a]quinoxaline-7-carboxylic acid] |  | 1.1 | 4.3 | 4.9 | 5.5 | ≤ 1
